Read-outs that look alike come from different tables or passages of the source.
Experiments:
Assay type in all cases: in vivo
[1] = test system: Amaranthus retroflexus (AMARE); assay: Pre-emergence herbicidal action against AMARE; details: 320 g/ha, visual scoring after about 3 weeks vs untreated controls
Outline: (§1)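 Dosages of 320 g/ha or less; pre-emergence; WP or EC in aqueous spray, 0.5% additive, 600 l/ha; greenhouse; visual % effect after ~3 wk relative to control pots.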

[2] = test system: Verconica persica (VERPE); assay: Pre-emergence herbicidal action against VERPE; details: dosage 320 g/ha
Outline: as §1

Oryza sativa (ORYSA) [3] = details: pre-emergence, crop plant compatibility, in comparison to untreated controls
Outline: (§2)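 Crop injury rated visually in percent against untreated plants roughly 3 weeks after treatment (0% no effect, 100% plants dead). Compounds, as WP or EC with 0.5% additive in 600 l/ha water, were applied to the covering soil right after sowing; greenhouse growth. Suffixes a, b, c denote different dosages.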

[4] = test system: Triticum aestivum (TRZAS); details: pre-emergence, crop plant compatibility, in comparison to untreated controls
Outline: as §2

Zea mays (ZEAMX) [5] = details: pre-emergence, crop plant compatibility, in comparison to untreated controls
Outline: as §2

[6] = test system: Amaranthus retroflexus (AMARE); assay: Post-emergence herbicidal action against AMARE
Outline: (§3)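 Post-emergence greenhouse spray, one-leaf stage, 600 l/ha water plus 0.5% additive; WP or EC formulations; application rates 320 g/ha or lower. Visual % damage vs untreated controls at ~3 weeks.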

Oryza sativa (ORYSA) [7] = details: crop plant compatibility, effect in comparison to untreated controls
Outline: (§4)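 Foliar application at the one-leaf stage: WP/EC formulation, 0.5% additive, 600 l/ha water. Greenhouse-grown in sandy loam. Endpoint is visual % injury relative to untreated controls at about 3 weeks.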

Zea mays (ZEAMX) [8] = details: crop plant compatibility, effect vs untreated controls
Outline: as §4

[9] = test system: Digitaria sanguinalis (DIGSA); assay: Pre-emergence herbicidal action against DIGSA; details: dosage 320 g/ha
Outline: as §1

Lolium rigidum (LOLRI) [10] = assay: Pre-emergence herbicidal action against LOLRI; details: dosage 320 g/ha
Outline: as §1

[11] = test system: Matricaria inodora (MATIN); assay: Post-emergence herbicidal action against MATIN; details: dosage 320 g/ha
Outline: as §3

[12] = test system: Pharbitis purpurea (PHBPU); assay: Post-emergence herbicidal action against PHBPU
Outline: as §3

[13] = test system: Polygonum convolvulus (POLCO); assay: Post-emergence herbicidal action against POLCO; details: dosage 320 g/ha
Outline: as §3

[14] = test system: Verconica persica (VERPE); assay: Post-emergence herbicidal action against VERPE
Outline: as §3

Viola tricolor (VIOTR) [15] = assay: Pre-emergence herbicidal action against VIOTR; details: 320 g/ha, Viola tricolor
Outline: as §1

[16] = test system: Alopecurus myosuroides (ALOMY); assay: Post-emergence herbicidal action against ALOMY; details: 320 g/ha, visual rating about 3 weeks after treatment vs untreated controls (100% = plants have died, 0% = like control plants)
Outline: as §3

Viola tricolor (VIOTR) [17] = assay: Post-emergence herbicidal action against VIOTR; details: 320 g/ha
Outline: as §3

[18] = test system: Triticum aestivum (TRZAS); details: crop plant compatibility, 80 g/ha, effect vs untreated controls
Outline: as §4

[19] = test system: Matricaria inodora (MATIN); assay: Pre-emergence herbicidal action against MATIN; details: dosage 320 g/ha
Outline: as §1

[20] = test system: Pharbitis purpurea (PHBPU); assay: Pre-emergence herbicidal action against PHBPU; details: dosage 320 g/ha
Outline: as §1

[21] = test system: Polygonum convolvulus (POLCO); assay: Pre-emergence herbicidal action against POLCO; details: dosage 320 g/ha
Outline: as §1

Setaria viridis (SETVI) [22] = assay: Pre-emergence herbicidal action against SETVI; details: dosage 320 g/ha
Outline: as §1

[23] = test system: Echinochloa crus-galli (ECHCG); assay: Post-emergence herbicidal action against ECHCG; details: dosage 320 g/ha
Outline: as §3

Lolium rigidum (LOLRI) [24] = assay: Post-emergence herbicidal action against LOLRI; details: dosage 320 g/ha
Outline: as §3

Setaria viridis (SETVI) [25] = assay: Post-emergence herbicidal action against SETVI
Outline: as §3

[26] = 320 g/ha, visual rating about 3 weeks after treatment

Row | Pre-emergence action against ORYSA in % (Oryza sativa (ORYSA) [3]; 80 g/ha) | Pre-emergence action against ORYSA in % (Oryza sativa (ORYSA) [3]; 320 g/ha) | Pre-emergence action against TRZAS in % ([4]; 80 g/ha) | Pre-emergence action against ZEAMX in % (Zea mays (ZEAMX) [5]; 80 g/ha) | Post-emergence action against ORYSA in % (Oryza sativa (ORYSA) [7]; 80 g/ha) | Post-emergence action against ORYSA in % (Oryza sativa (ORYSA) [7]; 320 g/ha) | Post-emergence action against ZEAMX in % (Zea mays (ZEAMX) [8]; 80 g/ha) | Post-emergence action against TRZAS in % [18] | SMILES | Pre-emergence action against AMARE in % [1] | Pre-emergence action against VERPE in % [2] | Post-emergence action against AMARE in % [6, 26] | Pre-emergence action against LOLRI in % (Lolium rigidum (LOLRI) [10]) | Post-emergence action against PHBPU in % ([12]; dosage 320 g/ha) | Post-emergence action against POLCO in % [13] | Post-emergence action against VERPE in % ([14]; 320 g/ha, VERPE) | further results
1 | 0% | 10% | 0% | 0% | 0% | 0% | 0% | – | COC(=O)[C@H](C)NC(=O)COc1nn(-c2ccnc(F)c2)c(-c2ccc(F)nc2)c1Br [III-28] | 80% | 80% | 80% | – | – | – | – | Pre-emergence action against ZEAMX in % (Zea mays (ZEAMX) [5]; 320 g/ha): 10%; Post-emergence action against AMARE in % ([6]; 80 g/ha, visual rating about 3 weeks after treatment vs untreated controls (100% = plants have died, 0% = like control plants)): 80%; Post-emergence action against ZEAMX in % (Zea mays (ZEAMX) [8]; 320 g/ha): 0%
2 | – | – | 20% | 20% | 0% | 0% | 0% | – | O=C(O)COc1nn(-c2ccccn2)c(-c2ccc(Cl)nc2)c1Cl [Example I-236] | 80% | – | 80% | 90% | 80% | 80% | 80% | Pre-emergence action against DIGSA in % [9]: 90%; Post-emergence action against MATIN in % [11]: 80%
3 | 0% | 0% | 0% | – | 0% | 0% | – | 0% | CCOC(=O)COc1nn(-c2ccncc2)c(-c2ccc(F)nc2)c1Br [III-08] | 80% | – | 80% | – | – | 80% | – | Pre-emergence action against VIOTR in % (Viola tricolor (VIOTR) [15]): 90%; Pre-emergence action against TRZAS in % ([4]; 320 g/ha): 0%; Post-emergence action against ALOMY in % [16]: 80%; Post-emergence action against VIOTR in % (Viola tricolor (VIOTR) [17]): 80%
4 | 0% | – | 20% | – | 10% | – | – | 10% | COCCOC(=O)COc1nn(-c2cccc(C)n2)c(-c2ccc(F)nc2)c1Cl [Example I-279] | – | 80% | – | 80% | 80% | – | 90% | Pre-emergence action against MATIN in % [19]: 80%; Pre-emergence action against PHBPU in % [20]: 100%; Pre-emergence action against POLCO in % [21]: 80%; Pre-emergence action against SETVI in % (Setaria viridis (SETVI) [22]): 90%; Post-emergence action against ECHCG in % [23]: 80%; Post-emergence action against LOLRI in % (Lolium rigidum (LOLRI) [24]): 80%; Post-emergence action against PHBPU in % ([12]; dosage 80 g/ha): 80%; Post-emergence action against SETVI in % (Setaria viridis (SETVI) [25]; dosage 80 g/ha): 80%; Post-emergence action against SETVI in % (Setaria viridis (SETVI) [25]; dosage 320 g/ha): 80%; Post-emergence action against VERPE in % ([14]; dosage 80 g/ha): 80%

Reference: patent US20240041042A1, “1-(PYRIDYL)-5-AZINYLPYRAZOLE DERIVATIVES, AND THEIR USE FOR CONTROL OF UNDESIRED PLANT GROWTH” (Bayer Aktiengesellschaft, priority 2020, published 2024)
